Assay results as given in BindingDB's records for PubMed 34491744 (National Center For Advancing Translational Sciences, 2021).

These molecules were tested against Galactokinase (Homo sapiens, UniProt P51570) (assay: Inhibition of recombinant human GALK1 using galactose as substrate incubated for 1 hrs in the presence of ATP by Kinase-Glo reagent based luminescence assay).
Chain of Galactokinase (P51570 whole entry): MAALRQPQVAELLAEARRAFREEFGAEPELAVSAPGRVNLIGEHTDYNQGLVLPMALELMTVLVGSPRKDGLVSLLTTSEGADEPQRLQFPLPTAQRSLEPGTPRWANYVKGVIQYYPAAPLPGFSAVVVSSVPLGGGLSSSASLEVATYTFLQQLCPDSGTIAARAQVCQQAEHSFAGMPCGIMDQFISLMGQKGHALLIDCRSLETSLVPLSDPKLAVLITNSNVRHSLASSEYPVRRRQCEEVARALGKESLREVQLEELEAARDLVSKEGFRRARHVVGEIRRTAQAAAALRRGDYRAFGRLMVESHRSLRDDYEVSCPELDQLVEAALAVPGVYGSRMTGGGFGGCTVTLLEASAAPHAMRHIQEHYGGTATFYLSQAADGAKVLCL

| SMILES | IC50 [µM] |
| --- | --- |
| CC1=C(C(=O)NCc2ccccc2O)C(c2ccccc2Cl)N=C(Nc2nc3ccccc3o2)N1 (stereo not drawn) | 6.31 |
| CC1=C(C(=O)Nc2cc(C(=O)O)ccn2)C(c2ccccc2Cl)N=C(Nc2nc3cc(F)ccc3o2)N1 (stereo not drawn) | 3.16 |
| CC1=C(C(=O)NCc2cncn2C)C(c2ccccc2Cl)N=C(Nc2nc3ccccc3o2)N1 (stereo not drawn) | 1.58 |
